According to PubChem BioAssay (NCI):
Values joined by “and” are separate entries in the source; they are usually repeats but may differ in a detail not shown here. Identical values can stand only once.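 1) Cells in 96-well plates. 2) Compound, 48 h, 5 concentrations. 3) Linear interpolation between surrounding doses. 4) Unreached endpoint = highest concentration. The concentration for 50% growth inhibition is given as GI50. TGI: total growth inhibition.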

Tests used:
Assay in all cases: NCI anticancer screen, dose series, 48 h
[1] = test system: K-562 leukemia
[2] = test system: HL-60(TB) leukemia
[3] = test system: LOX IMVI melanoma
[4] = test system: LXFL 529 NSCLC
[5] = test system: HOP-92 NSCLC
[6] = test system: CCRF-CEM leukemia
[7] = test system: SR leukemia
[8] = test system: MOLT-4 leukemia
[9] = test system: SNB-75 CNS
[10] = test system: UACC-62 melanoma
[11] = test system: RPMI-8226 leukemia
[12] = test system: SK-MEL-2 melanoma
[13] = test system: OVCAR-5 ovarian
[14] = test system: NCI-H226 lung
[15] = test system: NCI-H460 lung
[16] = test system: KM12 colon
[17] = test system: EKVX NSCLC
[18] = test system: OVCAR-3 ovarian
[19] = test system: RXF 393 renal
[20] = test system: SNB-78 CNS
[21] = test system: KM20L2 colon
[22] = test system: HCC-2998 colon
[23] = test system: IGROV1 ovarian
[24] = test system: M19-MEL melanoma
[25] = test system: ACHN renal
[26] = test system: HOP-62 NSCLC
[27] = test system: HCT-116 colon
[28] = test system: SK-MEL-28 melanoma
[29] = test system: U251 CNS
[30] = test system: DLD-1 colon
[31] = test system: A498 renal
[32] = test system: 786-0 renal
[33] = test system: A549 NSCLC
[34] = test system: SF-295 CNS
[35] = test system: UACC-257 melanoma
[36] = test system: TK-10 renal
[37] = test system: OVCAR-8 ovarian
[38] = test system: MALME-3M melanoma
[39] = test system: HCT-15 colon
[40] = test system: SK-MEL-5 melanoma
[41] = test system: OVCAR-4 ovarian
[42] = test system: NCI-H23 lung
[43] = test system: SK-OV-3 ovarian
[44] = test system: SW-620 colon
[45] = test system: DMS 273 small cell lung
[46] = test system: HT29 colon
[47] = test system: SF-539 CNS
[48] = test system: M14 melanoma
[49] = test system: XF 498 CNS
[50] = test system: CAKI-1 renal
[51] = test system: UO-31 renal
[52] = test system: NCI/ADR-RES ovarian
[53] = test system: DU-145 prostate
[54] = test system: SN12C renal
[55] = test system: SF-268 CNS
[56] = test system: MDA-MB-231 breast
[57] = test system: MCF7 breast
[58] = test system: BT-549 breast
[59] = test system: COLO 205 colon
[60] = test system: SNB-19 CNS
[61] = test system: T-47D breast
[62] = test system: MDA-MB-435
[63] = test system: NCI-H522 lung
[64] = test system: HS 578T breast
[65] = test system: PC-3 prostate
[66] = test system: MDA-N

N#Cc1c(-c2ccccc2)cc(-c2ccccc2)n(C2OC(CO)C(O)C(O)C2O)c1=O (stereo not given)
TGI [1]: > 100 µM | TGI [2]: > 100 µM | TGI [3]: > 100 µM | TGI [4]: > 100 µM | GI50 [5]: 88.4 µM and 31.9 µM | TGI [5]: > 100 µM | TGI [6]: > 100 µM | TGI [7]: > 100 µM | TGI [8]: > 100 µM | GI50 [9]: 34.4 µM and 14.5 µM | TGI [9]: > 100 µM and 80.9 µM | TGI [10]: > 100 µM | TGI [11]: > 100 µM

O=C1CC(c2c[nH]c3ccccc23)C(=O)N1c1ccccc1 (stereo not given)
TGI [12]: > 100 µM | TGI [13]: > 100 µM | TGI [1]: > 100 µM | TGI [14]: > 100 µM | TGI [15]: > 100 µM | TGI [16]: > 100 µM | TGI [17]: > 100 µM | TGI [18]: > 100 µM | TGI [2]: > 100 µM | TGI [19]: > 100 µM | TGI [20]: > 100 µM | TGI [21]: > 100 µM | TGI [4]: > 100 µM | TGI [22]: > 100 µM | TGI [23]: > 100 µM | TGI [24]: > 100 µM | TGI [6]: > 100 µM | TGI [25]: > 100 µM | TGI [26]: > 100 µM | TGI [27]: > 100 µM | TGI [28]: > 100 µM | TGI [29]: > 100 µM | TGI [30]: > 100 µM | TGI [31]: > 100 µM | TGI [32]: > 100 µM | TGI [33]: > 100 µM | TGI [34]: > 100 µM | TGI [35]: > 100 µM | TGI [36]: > 100 µM | TGI [37]: > 100 µM | TGI [38]: > 100 µM | TGI [39]: > 100 µM | TGI [40]: > 100 µM | TGI [41]: > 100 µM | TGI [42]: > 100 µM | TGI [43]: > 100 µM | TGI [8]: > 100 µM | TGI [44]: > 100 µM | TGI [45]: > 100 µM | TGI [46]: > 100 µM | TGI [47]: > 100 µM | TGI [48]: > 100 µM | TGI [9]: > 100 µM | TGI [10]: > 100 µM | TGI [49]: > 100 µM | TGI [11]: > 100 µM | TGI [50]: > 100 µM | TGI [51]: > 100 µM

CSc1nc(=O)c(C#N)c(-c2ccccc2)n1C1OC(COC(C)=O)C(OC(C)=O)C(OC(C)=O)C1OC(C)=O (stereo not given)
TGI [52]: > 100 µM | TGI [12]: > 100 µM | TGI [13]: > 100 µM | TGI [1]: > 100 µM | TGI [14]: > 100 µM | TGI [15]: > 100 µM | TGI [16]: > 100 µM | TGI [17]: > 100 µM | TGI [53]: > 100 µM | TGI [54]: > 100 µM | TGI [18]: > 100 µM | TGI [2]: > 100 µM | TGI [55]: > 100 µM | TGI [19]: > 100 µM | TGI [3]: > 100 µM | TGI [22]: > 100 µM | TGI [56]: > 100 µM | TGI [5]: > 100 µM | TGI [23]: > 100 µM | TGI [57]: > 100 µM | TGI [58]: > 100 µM | TGI [59]: > 100 µM | TGI [60]: > 100 µM | TGI [6]: > 100 µM | TGI [25]: > 100 µM | TGI [26]: > 100 µM | TGI [27]: > 100 µM | TGI [28]: > 100 µM | TGI [29]: > 100 µM | TGI [31]: > 100 µM | TGI [61]: > 100 µM | TGI [62]: > 100 µM | TGI [32]: > 100 µM | TGI [33]: > 100 µM | TGI [34]: > 100 µM | TGI [35]: > 100 µM | TGI [7]: > 100 µM | TGI [36]: > 100 µM | TGI [37]: > 100 µM | TGI [38]: > 100 µM | TGI [39]: > 100 µM | TGI [40]: > 100 µM | TGI [63]: > 100 µM | TGI [41]: > 100 µM | TGI [42]: > 100 µM | TGI [43]: > 100 µM | TGI [64]: > 100 µM | TGI [8]: > 100 µM | TGI [44]: > 100 µM | TGI [65]: > 100 µM | TGI [46]: > 100 µM | TGI [47]: > 100 µM | TGI [48]: > 100 µM | TGI [9]: > 100 µM | TGI [66]: > 100 µM | TGI [10]: > 100 µM | TGI [11]: > 100 µM | TGI [50]: > 100 µM | TGI [51]: > 100 µM
